US11203753B2, “Hepcidin antagonists for use in the treatment of inflammation” (INSERM (INSTITUT NATIONAL DE LA SANTE ET DE LA RECHERCHE …, priority 2015, dated 2021)

Columns and labels:
hepcidin expression = test: Hepcidin expression (Q-PCR) in mouse intestine and liver 7 h after ip injection of TLR agonists; format: in vivo; details: WT mice
Protocol: Mice were ip injected with LPS (from E. coli O111:B4; 2 mg/kg), Zymosan A (from Saccharomyces cerevisiae, Sigma-Aldrich Z4250; 250 mg/kg), Poly:IC (Polyinosinic-polycytidylic acid sodium salt, Sigma-Aldrich P0913; 12.5 mg/kg), Flagellin (FLA-ST from Salmonella Typhimirium, InvivoGen, #12B06-MM; 1.5 mg/kg) or with a sterile saline solution (PBS) and sacrificed 7 hours later.
(§1) RNA extraction, reverse transcription, quantitative PCR and sequences of the primers used have been previously described^8. All samples were normalized to the threshold cycle value for cyclophilin-A.

NF-kB pathway = test: Hepcidin-induced expression of CXCL1 and TNF-α in macrophages with pathway inhibitors; format: cell-based, mouse
Excerpt: Moreover, MyD88, a canonical adaptor for inflammatory signaling pathway, but not TLR4, was required for the hepcidin-triggered induction of CXCL1 and TNF-α. Indeed, macrophages isolated from TLR4−/− but not MyD88−/− mice were still able to mount an inflammatory response after addition of hepcidin.

[1] = test system: WT bone marrow isolated neutrophils; test: Neutrophil migration assay (transwell) towards hepcidin; format: cell-based, mouse
Protocol: Bone marrows from WT mice were flushed from femurs and tibias with PBS using a 25 G needle. Tissues were homogenized through a 18 G needle and the suspension was passed through 70 μm and 40 μm cell strainers. Cells were centrifuged at 400 g for 10 min and resuspended in cold MACS buffer (PBS, BSA 0.5%, EDTA 2 mM, pH 7.4). After counting, cells were incubated on ice with FcBlock™ for 10 min, anti-Ly6C for 15 min and anti-biotin antibody microbeads for 15 min, following the manufacturer's instructions. Cells were washed with MACS buffer and centrifuged at 400 g for 10 min. Neutrophils were immuno-magnetically separated following filtration of the cell suspension through an LS column (Miltenyi) according to manufacturer's instructions.
(§2) Neutrophil migration was assessed using transwell (3 μm; BD-Falcon) coated with 10 μg/ml fibronectin (# F1141, Sigma-Aldrich). The cells (5×10^5/well) were diluted in 700 μL DMEM+10% SVF and migration towards hepcidin (Peptide International) in the bottom well was allowed for 2 hours at 37° C. The resulting migrated cells recovered from the bottom well were counted using hemocytometer.

[2] = test system: Caco-2 intestinal cell line; test: Addition of synthetic mature hepcidin to Caco-2 intestinal cell line; format: cell-based; details: basolateral or apical side
macrophages [3] = test: CXCL1 and TNF-α protein accumulation by macrophages following hepcidin treatment; format: cell-based, mouse; details: at 7 hours
Protocol: Kinetic response of macrophage-derived CXCL1 and TNF-α following hepcidin treatment was further determined. […] Massive protein accumulation of CXCL1 and TNF-α reached respectively 300 and 150 pg/ml at 7 hours (Data not shown). Hepcidin stimulated IL-1beta, IL-6 and iNOS expression with a maximal induction at 3 hours with 10 μg/ml hepcidin (FIG. 2c) while the peak of TNF-alpha and Cox-2 expression occurred after 1 hour of hepcidin treatment. AMPs, such as LL37, typically function in this high concentration range^18,19 to induce proinflammatory molecules^20,21. This allows the production of inflammatory mediators in pathological conditions where AMPs concentrations can reach high values^18,19 and not in healthy tissues where inflammatory damage might otherwise harm host cells.

macrophages [4] = test: Inflammatory gene expression (Q-PCR) in macrophages incubated with hepcidin-25; format: cell-based, mouse
Protocol: a, Flow cytometry analysis of neutrophils in lamina propria of WT and KO mice. Left: Representative experiment with Ly6G^+ Ly6C^low cells shown after gating on CD45^+CD11b^+ cells; Right: pool of four experiments (mean+/−s.e.m; *p<0.05). b, Migration of WT bone marrow isolated neutrophils in response to hepcidin-25. (3 experiments performed in triplicate; mean+/−s.e.m; *p<0.05). c, CXCL1, CXCL2, IL-1beta, iNOS mRNA levels in macrophages incubated for 1 or 3 hours with 1 μg/ml, 10 μg/ml Hepcidin-25 or PBS (control). d, Immunohistochemistry using anti-mouse iNOS antibody on intestine of WT and Hepc^Δint mice upon PBS or LPS injection.
The gastrointestinal tract contains the largest reservoir of macrophages in the organism^17. Besides its proper chemoattractant property, the inventors hypothesized that hepcidin may influence the production of chemokines by the macrophages. Macrophages were incubated with hepcidin-25 at different time points (30 min, 1 h, 3 h, 24 h, 48 h).
as §1

[5] = test system: Raw 264.7 (ATCC TIB-71) murine macrophage cell line; test: CXCL2 and TNF-α expression (Q-PCR) in serum starved Raw 264.7 macrophages with Hepc-25; format: cell-based
Protocol: FIG. 9: Serum starvation enhances the proinflammatory action of Hepc-25 in macrophages. Expression by Q-PCR of CXCL2 and TNF-α in Raw 264.7 (ATCC® TIB-71™) murine macrophage cell line serum starved or not for 1 hour before the addition of 10 μg/ml of Hepc-25 (Peptide International) for an additional hour. N=3 per group; mean+/−s.e.m. Statistical analysis by a two-way analysis of variance (ANOVA) followed by a Bonferroni posttest. **p<0.01; ***p<0.001.
Expression by Q-PCR of CXCL2 in Raw 264.7 (ATCC® TIB-71™) murine macrophage cell line serum starved for 1 hour or not before the addition of 1 or 10 μg/ml of Hepc-25 (Peptide International) for an additional hour. N=3 per group; mean+/−s.e.m. Statistical analysis by a two-way analysis of variance (ANOVA) followed by a Bonferroni posttest. **p<0.01; ****p<0.0001.

Cxcr2 = biological target: T1, Cxcr2 (Mus musculus, UniProt P35343); test: Neutrophil migration towards hepcidin in presence of Cxcr2 inhibitor; format: cell-based; details: hepcidin 1 μg/ml
T1 construct: Migration of WT bone marrow isolated neutrophils in response to hepcidin (1 μg/ml); endogenous in cells; host or cells: primary neutrophils isolated from bone marrow of WT mice (mixed C57BL6/129SV background)
T1 sequence (P35343 1-359): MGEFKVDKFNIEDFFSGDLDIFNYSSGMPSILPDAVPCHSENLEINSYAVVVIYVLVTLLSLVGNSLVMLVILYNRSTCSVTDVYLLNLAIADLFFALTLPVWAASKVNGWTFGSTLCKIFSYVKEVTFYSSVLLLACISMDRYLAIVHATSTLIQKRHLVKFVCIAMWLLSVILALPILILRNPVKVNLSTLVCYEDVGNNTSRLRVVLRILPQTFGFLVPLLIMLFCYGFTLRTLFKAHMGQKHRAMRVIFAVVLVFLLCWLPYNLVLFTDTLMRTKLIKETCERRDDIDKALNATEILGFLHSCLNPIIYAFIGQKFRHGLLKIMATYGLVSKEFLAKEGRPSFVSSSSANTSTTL
Protocol: Migration of WT bone marrow isolated neutrophils in response to hepcidin (1 μg/ml) in presence or not of the Cxcr2 inhibitor (sb225002, Sigma-Aldrich). n=3. mean+/−s.e.m.
as §2

Polyinosinic-polycytidylic acid sodium salt [poly:IC]
hepcidin expression in the intestine (hepcidin expression): induced

CC(C)(C)c1ccc(S(=O)(=O)/C=C/C#N)cc1 [BAY 7085]
hepcidin-induced expression of CXCL1 and TNF-α (NF-kB pathway): strongly blunted

hepcidin: synthetic mature 25 amino acid hepcidin peptide (Peptide International)
migration of neutrophils ([1]; bimodal dose response): induced a dose-dependent migration of neutrophils | dose of peak response of neutrophil migration ([1]; migration 2 hours at 37° C.): 0.1 µg/mL | iNOS expression [2]: did not induce | CXCL1 protein accumulation (macrophages [3]): 300 pg/mL | TNF-α protein accumulation (macrophages [3]): 150 pg/mL | expression of the iron-responsive gene TfR1 (macrophages [4]): unchanged | time of peak of TNF-alpha and Cox-2 expression (macrophages [4]): 1 h | time of peak of transient CXCL1 and TNF-α mRNA induction (macrophages [4]): 1 h | expression of CXCL-1 and CXCL2 (macrophages [4]; 1 μg/ml hepcidin, 1 hour): slightly increased | time of maximal induction of IL-1beta, IL-6 and iNOS expression (macrophages [4]; 10 μg/ml hepcidin): 3 h | expression of CXCL-1 and CXCL2 (macrophages [4]; 10 μg/ml hepcidin, 1 hour): maximally induced | fold change of genes statistically induced (TNF-α, CXCL1, CXCL2, NF-kappa-B inhibitor zeta, Mir-146) (macrophages [4]; 1 hour): > 2 | expression of Cxcl2 ([5]; 1 μg/ml, serum starvation 1 hour, 1 additional hour): robust expression | stimulatory effect on macrophage-mediated cytokine release ([5]; serum-free conditions versus not starved): clearly enhanced

O=C(Nc1ccc([N+](=O)[O-])cc1O)Nc1ccccc1Br [sb225002]
neutrophil migration towards hepcidin (Cxcr2): prevents neutrophil migration

Cc1ccc(S(=O)(=O)/C=C/C#N)cc1 [BAY 7082]
hepcidin-induced expression of CXCL1 and TNF-α (NF-kB pathway): strongly blunted

B1: flagellin: FLA-ST from Salmonella Typhimirium, agonist of TLR5 (protein, UniProt P06179 2-495, looked up)
Flagellin: AQVINTNSLSLLTQNNLNKSQSALGTAIERLSSGLRINSAKDDAAGQAIANRFTANIKGLTQASRNANDGISIAQTTEGALNEINNNLQRVRELAVQSANSTNSQSDLDSIQAEITQRLNEIDRVSGQTQFNGVKVLAQDNTLTIQVGANDGETIDIDLKQINSQTLGLDTLNVQQKYKVSDTAATVTGYADTTIALDNSTFKASATGLGGTDQKIDGDLKFDDTTGKYYAKVTVTGGTGKDGYYEVSVDKTNGEVTLAGGATSPLTGGLPATATEDVKNVQVANADLTEAKAALTAAGVTGTASVVKMSYTDNNGKTIDGGLAVKVGDDYYSATQNKDGSISINTTKYTADDGTSKTALNKLGGADGKTEVVSIGGKTYAASKAEGHNFKAQPDLAEAAATTTENPLQKIDAALAQVDTLRSDLGAVQNRFNSAITNLGNTVNNLTSARSRIEDSDYATEVSNMSRAQILQQAGTSVLAQANQVPQNVLSLLR
hepcidin expression in the intestine (hepcidin expression): induced
